# According to patent US20110085978A1, “NOVEL QUINOLINYLAMIDE DERIVATIVES USEFUL AS MODULATORS OF DOPAMINE AND SEROTONIN RECEPTORS” (NeuroSearch A/S, priority 2008, published 2011):
# Tested on: MK801 induced hyperactivity in female NMRI mice
# Assay: MK801 induced hyperactivity
# Type: in vivo
# Conditions: test compound subcutaneously 30 minutes before test start at 3, 10, 30 mg/kg, MK801 0.2 mg/kg ip
# Description: Female NMRI mice (Taconic M&B, P.O. box 1079, DK-8680 Ry, Denmark) are kept in a ventilated closed rack (Scantainer, Scanbur Ltd., Denmark) at constant temperature (21° C.) and humidity (60-70%) with a 7:00 a.m light/7:00 p.m dark cycle. Food (altromin rat pellets) and water were available ad libitum.
# Experiments were conducted during daytime in the light phase. The animals were habituated to the experimental room approximately 24 hours before start of the experiments.
# MK801 induced hyperactivity was measured in automated activity frames (TSE Home Cage Activity Monitoring System, MoTil, TSE technical & scientific equipment GmbH, Germany) equipped with infrared photobeam emitters and sensors. MK801 was administered in a dose of 0.2 mg/kg ip immediately before test start.
# Test compound was pretreated subcutaneously 30 minutes before test start at the following doses 3, 10, 30 mg/kg in a dose volume of 10 ml/kg.
row,SMILES,Minimal Effective Dose (M.E.D) that significantly reduces MK801 induced hyperactivity [mg/kg]
1,"O=C(CCCCN1CCC(c2ccccc2)CC1)Nc1ccc2ncccc2c1 [Compound A4, 5-(4-Phenyl-piperidin-1-yl)-pentanoic acid quinolin-6-ylamide]",10
2,"COc1ccccc1N1CCN(CCCCC(=O)Nc2ccc3ncccc3c2)CC1 [Compound A3, 5-[4-(2-Methoxy-phenyl)-piperazin-1-yl]-pentanoic acid quinolin-6-ylamide]",10
